The test concerns HepG2 PCSK9 mRNA, RT-qPCR, 24 h. As to the kind of experiment: PCSK9 mRNA changes with sterol depletion, late-stage follow-up, mechanism study for Trib1 inducer project, cell-based, HepG2, RT-PCR, cherry-picked dose (AID 1053162). The note with it: hits give high values.

With `CN1C(=O)c2cc(NC(=O)c3ccc(C(F)(F)F)cc3)ccc2OC[C@@H]2O[C@H](CC(=O)NC3Cc4ccccc4C3)CC[C@@H]21`, the fold induction was 2.5.
